The text below walks through data of patent US20240342196A1, “TARGETING SELECT LIPID SIGNALING TO COUNTER TYPE 1 DIABETES (T1D)” (The UAB Research Foundation, priority 2023, published 2024).

Bounds are passed on as bounds.

The subject of one data set is NOD mice. In words: T1D incidence in NOD mice. Format: in vivo, mouse. Conditions: 30-week monitoring period, vehicle only 75%. As for the experimental part:
To determine the impact of their signaling on T1D incidence, we treated NOD mice with either GP or EC alone starting at 4 weeks of age or in combination, where GP was started at 4 weeks of age and EC was introduced at 10 weeks of age. T1D incidence was recorded when blood glucose levels ≥[…] were measured in two consecutive weeks.

Another data set has as its system Th1 helper cells. In words: IFN-γ production by Th1 helper cells in the NOD. Format: cell-based, mouse. The text has this:
Type 1 diabetes (T1D) is a consequence of autoimmune destruction of pancreatic islet β-cells, but the involved processes remain unclear. […] The iPLA2β hydrolyzes membrane phospholipids at the sn-2 substituent to release a fatty acid (i.e., arachidonic acid), that is metabolized to generate proinflammatory (pi) lipids. We find that global reduction of iPLA2β reduces T1D incidence. Given the importance of T-lymphocytes in T1D development, we investigated the contribution of iPLA2β-derived lipids (iDLs) from T-lymphocytes with adoptive transfer and ex vitro functional approaches. The CD4^+/8^+ T-cells were purified from pre-diabetic female NOD and NOD.iPLA2β^+/− (HET) spleens. Different combinations of the cells (NOD4+8, NOD4+HET8, and NOD8+HET4) were then administered (i.p. 7.5×10^6: 2.5×10^6) to 4-week-old female immunodeficient NOD.scid mice. We find that scid recipients of a combination that included HET4 or HET8 had higher plasma insulin, decreased insulitis, and increased β-cell mass, compared to recipients of NOD4+NOD8.

A further data set has as its system HCA-7 colon cancer cells. Conditions: 10 μM; cited from earlier work.
A further data set deals with young rats. Conditions: 10 mg/kg/day; cited from earlier work.
The subject of data set [1] is LPS-activated human macrophages. Conditions: 100 nM; cited from earlier work.
Data set [2] concerns mouse model of peritonitis. Conditions: 10-100 ng dose; cited from earlier work.
Data set [3] has as its system human polymorphonuclear leukocyte (PMNL). Conditions: read-out: EC50, reduction of human PMNL transendothelial migration; cited from earlier work.
For another data set, the system named is RAW 264.7 cells. Conditions: 10 μM; cited from earlier work.
Another data set addresses T1, EP3 (Homo sapiens, UniProt P43115).
T1 sequence (P43115 1-390): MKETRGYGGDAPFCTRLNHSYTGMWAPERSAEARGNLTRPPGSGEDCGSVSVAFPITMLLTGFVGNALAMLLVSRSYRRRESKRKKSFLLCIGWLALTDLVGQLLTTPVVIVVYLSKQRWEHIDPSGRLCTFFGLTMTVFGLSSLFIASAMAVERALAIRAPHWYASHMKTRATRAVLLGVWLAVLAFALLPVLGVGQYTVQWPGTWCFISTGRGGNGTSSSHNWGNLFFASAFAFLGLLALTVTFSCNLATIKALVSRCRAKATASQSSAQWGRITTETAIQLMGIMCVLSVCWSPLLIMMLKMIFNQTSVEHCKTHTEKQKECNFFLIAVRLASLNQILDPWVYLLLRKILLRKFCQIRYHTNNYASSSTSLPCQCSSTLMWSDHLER
Conditions: cited from earlier work.

The target in a further data set is EP2 (Homo sapiens, UniProt P43116). Conditions: cited from earlier work.
Chain of EP2 (P43116 whole entry): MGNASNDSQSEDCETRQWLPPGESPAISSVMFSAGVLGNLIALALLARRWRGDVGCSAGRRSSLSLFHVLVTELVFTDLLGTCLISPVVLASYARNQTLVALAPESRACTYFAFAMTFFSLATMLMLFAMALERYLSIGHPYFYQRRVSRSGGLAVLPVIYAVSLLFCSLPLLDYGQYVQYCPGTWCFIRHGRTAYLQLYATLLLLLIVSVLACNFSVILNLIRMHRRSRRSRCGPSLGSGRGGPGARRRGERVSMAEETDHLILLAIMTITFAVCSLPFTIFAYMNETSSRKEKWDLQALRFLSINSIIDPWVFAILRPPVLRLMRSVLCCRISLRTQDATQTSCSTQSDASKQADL
The target in a further data set is T2, EP1 (Homo sapiens, UniProt P34995).
T2 sequence (P34995 1-402): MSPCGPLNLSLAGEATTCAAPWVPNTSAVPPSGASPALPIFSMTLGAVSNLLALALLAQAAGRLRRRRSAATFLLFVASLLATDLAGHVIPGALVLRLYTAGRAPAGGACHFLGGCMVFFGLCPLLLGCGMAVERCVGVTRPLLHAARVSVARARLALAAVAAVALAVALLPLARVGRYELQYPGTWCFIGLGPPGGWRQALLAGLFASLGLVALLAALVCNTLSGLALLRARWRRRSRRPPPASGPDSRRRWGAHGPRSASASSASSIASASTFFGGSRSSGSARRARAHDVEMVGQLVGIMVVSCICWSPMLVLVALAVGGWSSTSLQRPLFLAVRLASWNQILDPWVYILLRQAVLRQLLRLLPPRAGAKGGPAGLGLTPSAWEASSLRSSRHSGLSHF
Conditions: cited from earlier work.

Data set [4] addresses T3, EP4 (Homo sapiens, UniProt P35408). Conditions: CHO cells expressing EP4; 10 μM; cited from earlier work.
In data set [5] the target is T3, EP4. Conditions: HEK293 cells expressing EP4; cited from earlier work.
The subject of the next data set is human NK cells. Conditions: 0.01-10 μM, pretreatment 1 h, then 50 ng/ml IL-2, 0.33 μM PGE2, 18 hours; cited from earlier work.
The next data set relates to NK cells. Conditions: cited from earlier work.
Data set [6] addresses T3, EP4. Conditions: full antagonist; read-out: IC50 in the functional assay; cited from earlier work.

T3 sequence (P35408 whole entry): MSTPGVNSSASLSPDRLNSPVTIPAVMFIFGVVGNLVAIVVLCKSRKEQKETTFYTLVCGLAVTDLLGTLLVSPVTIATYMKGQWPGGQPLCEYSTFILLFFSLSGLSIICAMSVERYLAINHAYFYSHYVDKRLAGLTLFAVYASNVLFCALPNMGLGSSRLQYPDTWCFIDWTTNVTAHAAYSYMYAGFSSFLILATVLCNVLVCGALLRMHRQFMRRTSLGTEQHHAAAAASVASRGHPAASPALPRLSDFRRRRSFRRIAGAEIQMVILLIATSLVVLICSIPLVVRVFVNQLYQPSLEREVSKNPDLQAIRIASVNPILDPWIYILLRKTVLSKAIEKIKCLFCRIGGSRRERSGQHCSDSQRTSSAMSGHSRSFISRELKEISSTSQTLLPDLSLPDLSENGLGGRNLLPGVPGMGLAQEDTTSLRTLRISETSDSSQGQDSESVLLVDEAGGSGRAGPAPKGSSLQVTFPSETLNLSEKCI

In the case of `CC[C@H](C)C(=O)N1CCC(NC(=O)Nc2ccc(OC(F)(F)F)c(F)c2)CC1` [EC5026], the T1D incidence result in the data set on NOD mice was “without effect”. In the data set with Th1 helper cells, the “IFN-γ production by Th1 helper cells” value was “significantly reduced”.
With `CCCCc1nn(-c2ccccc2C(F)(F)F)c(=O)n1Cc1ccc(-c2ccccc2S(=O)(=O)NC(=O)c2sccc2C)cc1` [L-161,982], the PGE2-induced cell proliferation entry with HCA-7 colon cancer cells is reported as “blocks”. Besides, the PGE2-stimulated bone formation entry in the data set with young rats is “suppresses”. The “anti-inflammatory action of PGE2” value in data set [1] was “reverses”.
Take `CC/C=C\C[C@@H](O)/C=C/C=C\C=C\C=C\[C@@H](O)[C@@H](O)C/C=C\CCC(=O)O` [17 (R)-epimer of RvD1]: the “maximal inhibition of leukocyte infiltration” value in data set [2] is given as ~35%. For the same molecule, the EC50 in data set [3] is ~30 nM.
`CCc1nc2c(C)nc(C)cc2n1-c1ccc(CCNC(=O)NS(=O)(=O)c2ccc(C)cc2)cc1` [grapiprant]: the T1D incidence in the data set on NOD mice is listed as 50%. Moreover, the “IFN-γ production by Th1 helper cells” value in the data set with Th1 helper cells was “significantly reduced”.
In the case of `CC/C=C\C[C@H](O)/C=C/C=C\C=C\C=C\[C@@H](O)[C@@H](O)C/C=C\CCC(=O)O` [RvD1], the “maximal inhibition of leukocyte infiltration” value in data set [2] is on record as ~35%. For the same molecule, in [3], the EC50 is ~30 nM.
The IC50 is the concentration that inhibits the measured activity by half. Consider `C/C=C/c1nnn(Cc2ccc(C(F)(F)F)cc2)c1C(=O)N[C@@H](C)c1ccc(C(=O)O)cc1` [EP4 receptor antagonist 1], for which the “GM-CSF-induced expression of II1b, II4ra, II6, Arg1, Cox2, and II10” value in the data set with RAW 264.7 cells is on record as “decreases”. The IC50 on EP3, at EP2 and at EP1 was > 10000 nM throughout. The “ERK phosphorylation induced by PGE2” value on EP4 [4] is “reverses”. For the same molecule, the “PGE2-induced β-arrestin recruitment” value at EP4 [5] is listed as “inhibits”.
Turning to `O=C(O)c1ccc(C2(NC(=O)c3cccc4ccn(Cc5ccc(C(F)(F)F)cc5)c34)CC2)cc1` [MF-766], the “PGE2-suppressed IFN-γ secretion” value in the data set with human NK cells is given as “reverses”. Further, in the data set with NK cells, the NK cell viability entry is listed as “not affected”. On EP4 [6], the half-inhibitory concentration (IC50) is 1.4 nM.
